Measured values as given in paper PMC7143862, “Prostaglandins Isolated from the Octocoral Plexaura homomalla: In Silico and In Vitro Studies Against Different Enzymes of Cancer” (Marine Drugs, 2020).
Converted amounts (≈) assume the structure as drawn.

Columns and labels:
p38α-kinase = target: T1, p38α-kinase (Homo sapiens, UniProt Q16539); assay: p38α Kinase Enzyme System, ADP-Glo luminescence; assay type: biochemical
T1 construct: purchased Promega Corporation
Text: Possibly due to a higher concentration of compounds that generate interaction with a site of the enzymes different from the active site, which leads to a lower inhibition, as explained by Abdel-Magid, where it is stated that most of the drugs are designed to join the primary active sites of the enzymes, known as orthostatic sites. However, these can also have secondary sites or allosteric, in which, at the time of the inhibitors join them, a secondary effect is generated causing an increase in enzymatic activity. Therefore, it was not possible to obtain an IC50 value and the results were analyzed by the area under the curve (AUC). This performs the integral of the function of the logarithm of the concentration vs. luminescence for each of the compounds, and in this way to be able to compare the activity between them.
(§1) For the assay of the enzymatic activity, the p38α Kinase Enzyme System (Promega Corporation, Madison, WI, USA) and Src Kinase Enzyme System (Promega Corporation, Madison, WI, USA) kits were used. In this case 25 μL of reaction were added to each well (in the final concentrations shown in Table 4), where 10 μL were from substrate solution (0.2 mg/mL substrate, ATP and 1 × buffer kinase (Promega Corporation)), 10 μL of kinase solution (kinase (Promega Corporation), 1 × buffer kinase (Promega Corporation) and nuclease-free water) and 5 μL of the compounds initially prepared at 1 mM in DMSO and performing serial dilutions in Buffer Kinase (Promega Corporation) from 10 μM to 0.625 μM according to protocol for the kits (Promega Corporation, 2018). The plates were left at room temperature for 1 h, then 25 μL of ADP-Glo ™ Reagent (Promega Corporation) were added, these were placed at room temperature again for 40 min. Finally, 50 μL of the kinase detection reagent will be added and left at room temperature for 45 min [28]. The measurement was made by means of luminescence in an integration time of 0.5 to 1 s in the GENios Plus microplate reader (Grödig/Salzburg, Austria).

Src-kinase = target: T2, Src-kinase (Homo sapiens, UniProt P12931); assay: Src Kinase Enzyme System, ADP-Glo luminescence; assay type: biochemical; settings: for Src-kinase area under the curve (AUC): log concentration vs. luminescence, 10 to 0.625 μM, smaller area = more inhibition
T2 construct: purchased Promega Corporation
T2 sequence (P12931 whole entry): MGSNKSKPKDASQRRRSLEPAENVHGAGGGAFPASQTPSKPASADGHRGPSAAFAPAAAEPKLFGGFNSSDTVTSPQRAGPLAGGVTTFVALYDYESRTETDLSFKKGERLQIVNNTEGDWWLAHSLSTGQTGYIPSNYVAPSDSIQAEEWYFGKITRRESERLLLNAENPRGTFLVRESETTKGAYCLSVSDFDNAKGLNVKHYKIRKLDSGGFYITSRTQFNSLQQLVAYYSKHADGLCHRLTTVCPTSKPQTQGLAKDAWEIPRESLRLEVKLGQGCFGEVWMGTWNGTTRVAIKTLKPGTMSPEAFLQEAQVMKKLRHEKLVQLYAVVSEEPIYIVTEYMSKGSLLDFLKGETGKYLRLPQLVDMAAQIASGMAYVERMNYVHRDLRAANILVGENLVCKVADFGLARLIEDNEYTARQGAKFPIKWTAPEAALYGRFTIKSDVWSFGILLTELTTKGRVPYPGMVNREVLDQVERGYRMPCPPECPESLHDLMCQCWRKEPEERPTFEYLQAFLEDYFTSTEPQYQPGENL
Text: On the other hand, there are several enzymes that may be involved in several types of cancer, such as non-receptor tyrosine kinase (c-Src) which belongs to the family of kinases and is expressed in all cell types, but its activity is related to advanced malignancies and an unfavorable prognoses of human cancers, so it is considered a molecular target for studies of potential inhibitors. As with the previous enzyme, similar behavior was obtained, so the area under the curve of each of the compounds was also calculated in order to know which of them generate greater inhibition.
as §1

topoisomerase IIα = target: T3, topoisomerase IIα (Homo sapiens, UniProt P11388); assay: Topoisomerase IIα drug detection kit, kDNA agarose gel; assay type: biochemical; settings: normalized with 1% DMSO
T3 construct: purchased TopoGen
T3 sequence (P11388 whole entry): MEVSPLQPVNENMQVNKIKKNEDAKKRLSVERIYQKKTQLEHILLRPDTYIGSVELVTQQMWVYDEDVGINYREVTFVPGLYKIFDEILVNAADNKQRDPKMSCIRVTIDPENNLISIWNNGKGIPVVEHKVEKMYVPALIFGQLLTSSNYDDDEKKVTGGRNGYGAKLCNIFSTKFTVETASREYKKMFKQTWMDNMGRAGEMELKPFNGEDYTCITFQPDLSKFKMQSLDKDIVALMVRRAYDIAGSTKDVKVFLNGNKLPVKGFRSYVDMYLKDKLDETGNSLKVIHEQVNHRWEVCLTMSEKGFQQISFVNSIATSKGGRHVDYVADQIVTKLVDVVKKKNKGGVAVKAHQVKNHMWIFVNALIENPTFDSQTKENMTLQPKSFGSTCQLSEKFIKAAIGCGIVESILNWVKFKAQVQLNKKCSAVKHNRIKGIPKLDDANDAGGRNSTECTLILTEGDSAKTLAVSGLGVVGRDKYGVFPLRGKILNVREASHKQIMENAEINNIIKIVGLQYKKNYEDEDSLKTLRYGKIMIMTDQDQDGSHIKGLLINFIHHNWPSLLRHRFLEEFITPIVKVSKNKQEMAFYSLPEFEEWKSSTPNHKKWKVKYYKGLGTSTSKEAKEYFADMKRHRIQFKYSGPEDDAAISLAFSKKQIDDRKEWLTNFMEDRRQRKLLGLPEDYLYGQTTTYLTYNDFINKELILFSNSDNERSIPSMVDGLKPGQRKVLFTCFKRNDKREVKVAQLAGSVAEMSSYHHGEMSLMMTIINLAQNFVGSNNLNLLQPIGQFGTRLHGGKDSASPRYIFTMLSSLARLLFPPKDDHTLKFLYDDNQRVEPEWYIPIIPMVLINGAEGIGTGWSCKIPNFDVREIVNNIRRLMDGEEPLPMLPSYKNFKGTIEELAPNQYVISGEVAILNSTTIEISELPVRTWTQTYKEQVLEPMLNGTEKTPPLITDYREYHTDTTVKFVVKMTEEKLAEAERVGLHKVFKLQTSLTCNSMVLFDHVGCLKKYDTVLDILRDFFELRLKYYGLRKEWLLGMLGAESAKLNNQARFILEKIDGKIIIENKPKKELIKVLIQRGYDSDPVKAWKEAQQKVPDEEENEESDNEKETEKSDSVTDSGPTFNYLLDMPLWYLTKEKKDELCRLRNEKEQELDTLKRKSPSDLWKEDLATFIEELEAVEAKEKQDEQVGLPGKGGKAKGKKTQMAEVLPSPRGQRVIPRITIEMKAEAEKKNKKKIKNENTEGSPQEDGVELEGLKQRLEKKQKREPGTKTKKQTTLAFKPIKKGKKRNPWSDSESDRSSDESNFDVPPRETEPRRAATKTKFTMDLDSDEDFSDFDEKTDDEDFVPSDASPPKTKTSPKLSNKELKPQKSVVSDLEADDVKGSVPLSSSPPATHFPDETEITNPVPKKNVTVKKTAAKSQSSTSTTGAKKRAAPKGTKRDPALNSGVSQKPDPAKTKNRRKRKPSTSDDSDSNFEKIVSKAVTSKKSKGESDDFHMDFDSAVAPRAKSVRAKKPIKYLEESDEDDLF
Experimental: The Topoisomerase IIα drug detection kit (TopoGen, Buena Vista, VA, USA) was used. Reactions were made with 4 μL of reaction buffer (50 mM Tris-HCl, 5 mM ATP, 150 mM NaCl, 30 μg/mL bovine serum albumin, 0.5 mM dithiothreitol, 10 mM MgCl2), 1 μL of the enzyme topoisomerase IIα ([…], 2 units), 1 μL of the kDNA substrate (approximately 200 ng) and 1 μL of the compounds with activity at 10 μM, so that the final volume was 20 μL completing with nuclease-free water. These reactions were incubated at 37 °C for 30 min, and the reaction was terminated with 4 μL of stop buffer.

[1] = tested on: A549 lung cancer cell line; assay: MTT cell proliferation assay, A549; assay type: cell-based, human; settings: lung cancer cells; for IC50: Homo sapiens, A549, 48 h treatment
Text: (§2) All materials and reagents for cell culture were purchased from Sigma Aldrich (Saint Louis, MS, USA). For the assay, two human cancer cell lines and two cell lines, one human and one mouse as controls, were used. The human breast cancer cell line (MDA-MB-231 ATCC®) and lung cancer cell line (A549 ATCC®) were maintained in Dulbecco’s modified Eagle medium (DMEM) supplemented with 10% of fetal bovine serum and 1% of penicillin. The primary human dermal fibroblasts from adult skin (HDFa ATCC®) and the cell line from mouse adipose tissue (L929 ATCC®) were maintained in Roswell Park Memorial Institute medium (RPMI) supplemented with 10% of fetal bovine serum and 1% of penicillin, all cells in incubator with 5% CO2 at 37 °C [25].
(§3) Antiproliferative studies were carried out using the modified MTT assay based on a previously published method. In this case, 100 μL of cell suspension from the tumor lines was seeded in 96-well plates with a cellular density of 20,000 cells/well and incubated with 5% CO2 at 37 °C to allow cell adhesion. After 48 h, the supernatant was discarded and the cells were treated with different concentrations (5, 10, 25, 50, and 100 μg/mL) of the natural compounds 1 and 2 and the semisynthetic derivatives 3–5 dissolved in an unsupplemented medium. The plate was incubated for 48 h with 5% CO2 at 37 °C. Subsequently, 100 μL of an MTT solution at 0.5 mg/mL was added to each well and placed back in the incubator for 2 h. The supernatant was removed and 100 μL of DMSO was added to incubate for 15 min. Finally, absorbance (OD) at 595 nm was measured on an iMark ™ Microplate reader (Bio-Rad, Hercules, CA, USA).
(§4) The cytotoxic activity was quantified by calculating the mean inhibitory concentration (IC50), normalizing the absorbance data and converting them into percentages of inhibition. With a nonlinear 4PL regression, the IC50 was found, as developed by Sebaugh, using the PrimsGraph Pad® program (GraphPad Software Inc., San Diego, CA, USA).

[2] = tested on: L929 fibroblast cell line; assay: MTT cell proliferation assay, L929; assay type: cell-based; settings: 48 h treatment, healthy mouse fibroblasts
Text: as §2, §3, §4

[3] = tested on: MDA-MB-231 breast cancer cell line; assay: MTT cell proliferation assay, MDA-MB-231; assay type: cell-based; settings: Homo sapiens, 48 h treatment, breast cancer cells
Text: as §2, §3, §4

[4] = tested on: HDFa dermal fibroblast cell line; assay: MTT cell proliferation assay, HDFa; assay type: cell-based; settings: 48 h treatment, healthy human dermal fibroblasts
Text: as §2, §3, §4

skin cancer cells = tested on: skin cancer cells; design: method as in PMID 30858059, PMID 28292936; settings: cited from earlier work
[5] = tested on: lung cancer cells line (A549); design: method as in PMID 28635645; settings: cited from earlier work

T1 sequence (Q16539 whole entry): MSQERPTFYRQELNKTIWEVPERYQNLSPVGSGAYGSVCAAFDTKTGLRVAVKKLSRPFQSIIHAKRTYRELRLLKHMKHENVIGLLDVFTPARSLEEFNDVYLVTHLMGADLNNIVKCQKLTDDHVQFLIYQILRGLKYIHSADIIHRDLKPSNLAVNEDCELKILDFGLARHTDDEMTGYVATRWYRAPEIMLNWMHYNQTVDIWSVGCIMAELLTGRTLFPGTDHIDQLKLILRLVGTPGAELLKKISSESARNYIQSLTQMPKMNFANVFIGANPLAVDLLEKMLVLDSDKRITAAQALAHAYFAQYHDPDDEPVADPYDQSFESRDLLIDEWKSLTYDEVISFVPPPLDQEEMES

Compound | inhibition at 2.5 µM (p38α-kinase) [%] | inhibition at 2.5 µM (Src-kinase) [%] | inhibition at 10 µM (topoisomerase IIα) [%] | IC50 [1] [µg/mL] | IC50 [3] [µg/mL] | p38α-kinase % inhibition (p38α-kinase; at 2.5 μM) [%] | Src-kinase area under the curve (AUC) (Src-kinase) | IC50 A549 ([1]; 48 h treatment) | IC50 [2] [µg/mL] | IC50 [4] [µg/mL] | IC50 (skin cancer cells) [µM] | IC50 [5] [µM]
CCCCC/C=C/C=C1/C(=O)C=CC1C/C=C\CCCC(=O)NCCO (stereo not shown) [15-deoxy-Δ^12,14-PGJ2-EA] |  |  |  |  |  |  |  |  |  |  | 20 | 
CCCCC[C@H](O)/C=C/[C@H]1C(=O)C[C@H](O)[C@@H]1C/C=C\CCCC(=O)NCCO [PGD2-EA] |  |  |  |  |  |  |  |  |  |  | 18 | 
CCCCCC(O)/C=C/[C@H]1C=CC(=O)[C@@H]1C/C=C\CCCC(=O)O (stereo partly shown) [Compound 2, (5Z,13E) -15-hydroxy-9-oxoprosta 5,10,13 trien-1-oic acid] | 49 | 59 | 64 | 25.2 (≈ 75.3 µM) | 16.5 (≈ 49.2 µM) |  | 921 |  | 40.4 (≈ 121 µM) | 17.9 (≈ 53.4 µM) |  | 
sardysterol |  |  |  |  |  |  |  |  |  |  |  | 27.3
CCCCCC(/C=C/[C@H]1C=CC(=O)[C@@H]1C/C=C\CCCC(=O)OC)OC(C)=O (stereo partly shown) [Compound 1, (5Z,13E)-15-acetyl-oxy-9-oxo-prosta-5,10,13-trien-1-oic acid methyl ester] | 42 | < 40 | 45 | > 100 | 27.5 (≈ 70.5 µM) |  | above 1500 | ineffective | 71.7 (≈ 184 µM) | 28.3 (≈ 72.4 µM) |  | 

Now from value to compound, other results behind:

inhibition at 2.5 µM (p38α-kinase) [%] | inhibition at 2.5 µM (Src-kinase) [%] | inhibition at 10 µM (topoisomerase IIα) [%] | IC50 [1] [µg/mL] | IC50 [3] [µg/mL] | p38α-kinase % inhibition (p38α-kinase; at 2.5 μM) [%] | Src-kinase area under the curve (AUC) (Src-kinase) | IC50 A549 ([1]; 48 h treatment) | Compound | IC50 [2] [µg/mL] | IC50 [4] [µg/mL] | IC50 (skin cancer cells) [µM] | IC50 [5] [µM]
37 | < 40 | 43 | > 100 | > 100 |  |  |  | CCCCCC(/C=C/[C@H]1CC[C@@H](O)[C@@H]1C/C=C\CCCC(=O)OC)OC(C)=O (stereo partly drawn) [Compound 3, (5Z,9β,13E)-15-acetyloxy-9-hydroxy-prosta-5,13-dien-1-oic acid methyl ester] | > 100 | > 100 |  | 
39 | 46 | 24 | > 100 | > 100 | 36 |  |  | CCCCC[C@@H](O)/C=C/[C@H]1CCC(O)[C@@H]1C/C=C\CCCCO (stereo partly shown) [Compound 5, (5Z,13E)-1,9,15-triol-prosta-5,13-diene] | > 100 | > 100 |  | 
37 | < 40 | 26 | > 100 | > 100 |  |  |  | CCCCCC(/C=C/[C@H]1CC[C@H](O)[C@@H]1C/C=C\CCCC(=O)OC)OC(C)=O (stereo partly drawn) [Compound 4, (5Z,9α,13E)-15-acetyloxy-9-hydroxy-prosta-5,13-dien-1-oic acid methyl ester] | 54.3 (≈ 138 µM) | 50.7 (≈ 128 µM) |  | 
 |  | 88 |  |  |  |  |  | COc1cccc2c1C(=O)c1c(O)c3c(c(O)c1C2=O)C[C@@](O)(C(=O)CO)C[C@@H]3O[C@H]1C[C@H](N)[C@H](O)[C@H](C)O1 [doxorubicin, reference compound] |  |  |  | 
